Laboratory results reported in PMC9944496 (Food Chemistry: X, 2023).

Target: T1, AbXOD (Acinetobacter baumannii xanthine oxidase; "wild-type" = AbXDH Y351V) (Acinetobacter baumannii, UniProt A0A0U3AJU6)
T1 construct: gene xdhB
Settings: 50 mmol/L Tris/HCl pH 8.5, 40 °C; apparent Km; paper's wild-type carries Y351V in A subunit; substrate inhibition constant; second site

O=c1[nH]c(=O)c2[nH]cnc2[nH]1 [xanthine]
Ki: 21.11 mM
